Patent publication US20230021647A1, “METHOD OF TREATING A PATIENT INFECTED WITH A CORONAVIRUS AND HAVING A BASELINE LEVEL OF CRP BELOW 150 MG/L” (Theravance Biopharma R&D IP, LLC, priority 2021, published 2023)
Marks after values point to notes of the source that are not given here.

Columns and labels:
Format in all cases: in vivo, human
[1] = system: acute lung injury associated with COVID-19; test: Phase 2 study Part 2, 3 mg vs placebo in hospitalized COVID-19 patients; conditions: for time to recovery, median: placebo 11
Protocol: Eligible subjects were stratified by age (≤60 vs >60 years) and concurrent use of antiviral medications (e.g., remdesivir, lopinavir, chloroquine) at baseline. […] Approximately 20% of participants were enrolled with a baseline clinical status score of six (NIPPV or high flow oxygen device) based on the 8-point ordinal scale (Table 13).
The study drug was administered at 3 mg once-daily in a single dose with an additional 3 mg loading dose on day 1, for up to 7 days or until discharge from the hospital, whichever was earlier. Subjects were followed for up to 28 days or until death, whichever was earlier.
Matching placebo was administered once daily for up to 7 days, via inhalation using a vibrating mesh nebulizer.
In Part 2, the primary endpoint was the number of RFDs from randomization through Day 28. Secondary Endpoints were: change from baseline in SaO2/FiO2 ratio on Day 7, proportion of subjects in each category of the 8-point clinical status scale on Days 7, 14, 21 and 28, and proportion of subjects alive and respiratory failure-free on Day 28. […] Additional exploratory endpoints may include: change from baseline in SaO2/FiO2 ratio in mmHg on Day 7, number of VFDs from randomization to Day 28, proportion of subjects with a SaO2/FiO2 ratio >300 on Days 5 and 7, proportion of subjects in each category of the 6-point clinical status scale on Days 7, 14, 21 and 28, proportion of subjects in each category of vital status (death, discharge, hospitalized) on Days 7, 14, 21 and 28, proportion of subjects with an oxygen saturation >90% on room air, proportion of subjects with fever (>37° C. oral or equivalent), chest imaging (when done for clinical care reasons), biomarkers including: nasal SARS-CoV-2 viral load. The safety endpoints were: change from baseline in vital signs and clinical laboratory results, and incidence and severity of TEAEs. The PK endpoints were population PK parameters for compound 1.
The primary endpoint was the number of respiratory failure-free days (RFDs) from randomization through Day 28. A RFD was defined as a day that a subject is alive and not requiring the use of invasive mechanical ventilation, non-invasive positive pressure ventilation, high-flow oxygen devices, or oxygen supplementation from randomization through Day 28. A clinical status score of <4 (Table 13) was equivalent to a respiratory failure-free day. The number of RFDs was 0 for subjects who use respiratory support for 28 days or longer, or for subjects who died on or before Day 28.
Treatment comparisons were performed using a Van Elteren test (a stratified Wilcoxon rank sum test) adjusting for stratification factors. Treatment difference were summarized based on median of RFD between compound 1 and placebo. Additional prognostic baseline covariates (e.g., comorbidities) were included in the sensitivity analyses.
For SaO2/FiO2, treatment comparisons versus placebo were conducted using a mixed-model repeated measures (MMRM) model. The model included fixed effects for randomized treatment group, study day (Day 7, 14, 21 and 28), treatment group by study day interaction, baseline SaO2/FiO2 ratio, treatment group by baseline SaO2/FiO2 ratio interaction, and stratification factors (baseline age group ≤60 vs >60 years, and concurrent use of antiviral medication at baseline Yes vs. No). A random effect for subject was also included in the model. An unstructured covariance matrix was used to estimate covariance of within-patient scores. The Kenward-Roger approximation was used to estimate denominator degrees of freedom. From this model, least squares means, standard errors, treatment differences in LS means, and 95% confidence intervals (CIs) were estimated.

[2] = system: acute lung injury associated with COVID-19; test: Phase 2 study Part 1, multiple ascending dose in hospitalized COVID-19 patients; conditions: for subjects discharged from the hospital: by Day 21 (placebo 50%); for # Subjects Alive: Part 1, COVID-19 patients
[3] = Phase 1 SAD/MAD study of inhaled compound 1 in healthy subjects
Protocol: This was a phase 1, 2-part, double-blind, randomized, placebo controlled, sponsor-open, SAD (Part A) and MAD (Part B). Subjects participated in only 1 cohort in only 1 study part.
Part A (SAD) consisted of three (3) cohorts of 8 healthy subjects (6 active and 2 placebo). In each cohort, subjects received a single inhaled dose of compound 1 or placebo. […] Cardiodynamic monitoring via Holter monitors was conducted pre-dose and for at least 24 hours following dosing on Day 1 in each cohort, with rest periods for cardiodynamic electrocardiogram (ECG) extractions time matched to the PK sampling time points.
Part B (MAD) consisted of three (3) cohorts of 10 healthy subjects (8 active and 2 placebo). In each cohort, subjects received inhaled doses once daily (QD) for 7 days. […] Blood samples for PK assessment were also collected pre-dose on the morning of Days 3 through 6. Cardiodynamic monitoring via Holter monitors may be conducted pre-dose on Day 1 and pre-dose and for at least 24 hours following dosing on the morning of Day 7 in each cohort with rest periods for cardiodynamic ECG extractions time matched to the PK sampling time points.
In Parts A and B, safety data (i.e., physical examinations, vital signs, 12-lead safety ECGs, spirometry, clinical laboratory tests, and adverse events [AEs]) were assessed throughout the study; and blood and urine samples were collected for safety assessments. All subjects who received at least one dose of study drug (including subjects who terminated the study early) returned to the CRU 7 (±2) days after the last study drug administration for follow-up procedures, and to determine if any AEs have occurred since the last study visit.
In Part B, subjects received inhaled doses QD for 7 days using a nebulizer device.
Morning doses on Days 1 and 7 were administered under fasting conditions due to cardiodynamic monitoring. On all other times, doses were administered at least 30 minutes after completion of a meal or snack. Hour 0 was defined as the beginning of inhalation in each morning dose administration.

[4] = Part 1, 1 mg QD inhaled, Day 28
[5] = Part 1, 3 mg QD inhaled, Day 28
[6] = Part 1, 10 mg QD inhaled, Day 28
[7] = single and multiple inhaled doses

Structure (SMILES): CCc1cc(O)ccc1-c1ccc2c(-c3nc4c([nH]3)CN(C(C)C)[C@H](C(=O)N3CC(N(C)C)C3)C4)n[nH]c2c1 [Compound 1, (S)-(3-(dimethylamino)azetidin-1-yl)(2-(6-(2-ethyl-4-hydroxyphenyl)-1H-indazol-3-yl)-5-isopropyl-4,5,6,7-tetrahydro-3H-imidazo[4,5-c]pyridin-6-yl)methanone]
- plasma exposure ([1]; Part 2): low
- tolerability ([1]; Part 2): well-tolerated
- serious infections, patients ([1]; Part 2, placebo 2.0%): 1.0%
- venous thromboembolism, patients ([1]; Part 2, placebo 4.9%): none
- adverse events of liver abnormalities or disease, patients ([1]; Part 2, placebo 7.8%): 9.7%
- patients discontinued from study, withdrawal for adverse event ([1]; Part 2, placebo 13 (12.7%)): 8 (7.8%) n (%)
- serious adverse events, patients ([1]; Part 2, placebo 15.7%): 9.7%
- adverse events, patients ([1]; Part 2, placebo 41.2%): 34.0%
- secondary endpoints vs placebo: change in SaO2/FiO2 at Day 7, 8-point Clinical Status, alive and respiratory failure-free at Day 28 ([1]; Part 2 ITT): no difference
- 28-day all-cause mortality HR ([1]; Part 2 ITT vs placebo, p=0.08): 0.42
- time to recovery HR ([1]; Part 2 ITT vs placebo, p=0.12): 1.27
- RFDs from randomization through Day 28, median ([1]; Part 2 ITT, 3 mg QD, placebo 21, p=0.61): 21 days
- time to recovery, median ([1]; Part 2 ITT): 10 days
- 28-day all-cause mortality, total number of deaths ([1]; Part 2 ITT, placebo 13): 6
- 28-day all-cause mortality HR ([1]; Part 2 post-hoc, baseline CRP <150 mg/L vs placebo, p=0.009): 0.097
- time to recovery HR ([1]; Part 2 post-hoc, baseline CRP <150 mg/L vs placebo, p=0.02): 1.48
- 28-day all-cause mortality, total number of deaths ([1]; Part 2 post-hoc, baseline CRP <150 mg/L, placebo 9): 1
- time to recovery, median ([1]; Part 2 post-hoc, baseline CRP <150 mg/L): 10 days
- time to recovery or 28-day all-cause mortality vs placebo ([1]; Part 2 post-hoc, baseline CRP >150 mg/L (n=30)): no difference
- Still in Hospital at Day 28 ([2]; Part 1, 1 mg): 0 subjects (%)
- Died (All-Cause Mortality) ([2]; Part 1, 1 mg QD inhaled): 1 (16.7%) subjects (%)
- # Subjects Respiratory Failure-Free [2, 4]: 5 (83.3%) subjects (%)
- Proportion of Subjects Alive and Respiratory Failure-free [2, 4]: 5 (83.3%) subjects (%)
- deaths observed ([2]; Part 1, 1 mg group): one
- Hospital Discharge ([2]; Part 1, 1 mg, Day 7): 0 subjects (%)
- Hospital Discharge ([2]; Part 1, 1 mg, Day 14): 2 (33.3%) subjects (%)
- Hospital Discharge ([2]; Part 1, 1 mg, Day 21): 3 (50.0%) subjects (%)
- Clinical Status 1-Not hospitalized, no limitations on activities ([2]; Part 1, 1 mg, Day 28): 5 (83.3%) subjects (%)
- Clinical Status 2-Not hospitalized, but with limitations on activities and/or requiring home oxygen ([2]; Part 1, 1 mg, Day 28): 0 subjects (%)
- Clinical Status 3-Hospitalized, not requiring supplemental oxygen, and no longer requiring ongoing medical care ([2]; Part 1, 1 mg, Day 28): 0 subjects (%)
- Clinical Status 4-Hospitalized, not requiring supplemental oxygen, but requiring ongoing medical care ([2]; Part 1, 1 mg, Day 28): 0 subjects (%)
- Clinical Status 5-Hospitalized, requiring supplemental oxygen ([2]; Part 1, 1 mg, Day 28): 0 subjects (%)
- Clinical Status 6-Hospitalized, on non-invasive ventilation or high-flow oxygen devices ([2]; Part 1, 1 mg, Day 28): 0 subjects (%)
- Clinical Status 7-Hospitalized, on invasive mechanical ventilation or extracorporeal membrane oxygenation ([2]; Part 1, 1 mg, Day 28): 0 subjects (%)
- Clinical Status 8-Death ([2]; Part 1, 1 mg, Day 28): 1 (16.7%) subjects (%)
- Hospital Discharge ([2]; Part 1, 1 mg, Day 28): 5 (83.3%) subjects (%)
- Still in Hospital at Day 28 ([2]; Part 1, 3 mg): 0 subjects (%)
- Died (All-Cause Mortality) ([2]; Part 1, 3 mg QD inhaled): 0 subjects (%)
- # Subjects Respiratory Failure-Free [2, 5]: 6 (85.7%)* subjects (%)
- Proportion of Subjects Alive and Respiratory Failure-free [2, 5]: 6 (85.7%)* subjects (%)
- Hospital Discharge ([2]; Part 1, 3 mg, Day 7): 1 (14.3%) subjects (%)
- Hospital Discharge ([2]; Part 1, 3 mg, Day 14): 2 (28.6%) subjects (%)
- Hospital Discharge ([2]; Part 1, 3 mg, Day 21): 6 (85.7%) subjects (%)
- Clinical Status 1-Not hospitalized, no limitations on activities ([2]; Part 1, 3 mg, Day 28): 5 (83.3%) subjects (%)
- Clinical Status 2-Not hospitalized, but with limitations on activities and/or requiring home oxygen ([2]; Part 1, 3 mg, Day 28): 0 subjects (%)
- Clinical Status 3-Hospitalized, not requiring supplemental oxygen, and no longer requiring ongoing medical care ([2]; Part 1, 3 mg, Day 28): 0 subjects (%)
- Clinical Status 4-Hospitalized, not requiring supplemental oxygen, but requiring ongoing medical care ([2]; Part 1, 3 mg, Day 28): 1 (16.7%) subjects (%)
- Clinical Status 5-Hospitalized, requiring supplemental oxygen ([2]; Part 1, 3 mg, Day 28): 0 subjects (%)
- Clinical Status 6-Hospitalized, on non-invasive ventilation or high-flow oxygen devices ([2]; Part 1, 3 mg, Day 28): 0 subjects (%)
- Clinical Status 7-Hospitalized, on invasive mechanical ventilation or extracorporeal membrane oxygenation ([2]; Part 1, 3 mg, Day 28): 0 subjects (%)
- Clinical Status 8-Death ([2]; Part 1, 3 mg, Day 28): 0 subjects (%)
- Hospital Discharge ([2]; Part 1, 3 mg, Day 28): 7 (100%) subjects (%)
- subjects discharged from the hospital ([2]; Part 1, 3 mg): 86%
- Still in Hospital at Day 28 ([2]; Part 1, 10 mg): 0 subjects (%)
- Died (All-Cause Mortality) ([2]; Part 1, 10 mg QD inhaled): 0 subjects (%)
- # Subjects Respiratory Failure-Free [2, 6]: 6 (100.0%) subjects (%)
- Proportion of Subjects Alive and Respiratory Failure-free [2, 6]: 6 (100.0%) subjects (%)
- Hospital Discharge ([2]; Part 1, 10 mg, Day 7): 0 subjects (%)
- Hospital Discharge ([2]; Part 1, 10 mg, Day 14): 2 (33.3%) subjects (%)
- Hospital Discharge ([2]; Part 1, 10 mg, Day 21): 6 (100%) subjects (%)
- Clinical Status 1-Not hospitalized, no limitations on activities ([2]; Part 1, 10 mg, Day 28): 5 (83.3%) subjects (%)
- Clinical Status 2-Not hospitalized, but with limitations on activities and/or requiring home oxygen ([2]; Part 1, 10 mg, Day 28): 1 (16.7%) subjects (%)
- Clinical Status 3-Hospitalized, not requiring supplemental oxygen, and no longer requiring ongoing medical care ([2]; Part 1, 10 mg, Day 28): 0 subjects (%)
- Clinical Status 4-Hospitalized, not requiring supplemental oxygen, but requiring ongoing medical care ([2]; Part 1, 10 mg, Day 28): 0 subjects (%)
- Clinical Status 5-Hospitalized, requiring supplemental oxygen ([2]; Part 1, 10 mg, Day 28): 0 subjects (%)
- Clinical Status 6-Hospitalized, on non-invasive ventilation or high-flow oxygen devices ([2]; Part 1, 10 mg, Day 28): 0 subjects (%)
- Clinical Status 7-Hospitalized, on invasive mechanical ventilation or extracorporeal membrane oxygenation ([2]; Part 1, 10 mg, Day 28): 0 subjects (%)
- Clinical Status 8-Death ([2]; Part 1, 10 mg, Day 28): 0 subjects (%)
- Hospital Discharge ([2]; Part 1, 10 mg, Day 28): 6 (100%) subjects (%)
- subjects discharged from the hospital ([2]; Part 1, 10 mg): 100%
- # Subjects Alive ([2]; 1 mg QD inhaled, Day 28): 5 (83.3%) subjects (%)
- # Subjects Alive ([2]; 3 mg QD inhaled, Day 28): 7 (100.0%)* subjects (%)
- # Subjects Alive ([2]; 10 mg QD inhaled, Day 28): 6 (100.0%) subjects (%)
- trend vs placebo in oxygenation, clinical status, mortality, respiratory-failure free, time to discharge, Borg Dyspnea Score ([2]; Part 1, all compound 1 groups): positive trend
- trend in reduction of inflammation markers (hsCRP, IFN-g, IL-6, IP-10) and RAGE ([2]; Part 1, mostly 3 mg and 10 mg doses): positive trend
- AUC0-24 ([3]; 1 mg QD inhaled, Day 1): 18.42 ng·h/mL
- Cmax ([3]; 1 mg QD inhaled, Day 7): 5.699 ng/mL
- Tmax [3, 7]: approximately 1 hour
- terminal elimination half-life [3, 7]: approximately 24 hours
- t1/2 ([3]; single inhaled dose 3 mg, mean (SD)): 24.73 (2.802) hr
